Reference: patent US7452865B2, “Antagonistic analogs of GH RH (2003)” (The Administrare's of the Tulane Educational Fund, priority 2004, dated 2008)
Marks after values point to notes of the source that are not given here.

Tests used:
[1] = tested on: PC-3 human prostate cancer xenografts; test: PC-3 xenografts in nude mice, Experiment 4: tumor growth; type: in vivo; details: for Tumor volume (mm^3) Final / Tumor volume doubling time / Tumor weight / Tumor volume Final (% inhibition) / Tumor weight (% inhibition): 5 μg/day s.c., 28 days; for Tumor volume Final (% inhibition) / Tumor weight (% inhibition): vs control; for Tumor volume (mm^3) Initial: at start of treatment
Experimental: (§1) Male nude mice were implanted s.c. with 3 mm^3 pieces of PC-3 human hormone-independent prostate cancer tissue on both flanks. When tumors reached a volume of approximately 65 mm^3, the mice were divided into 7 experimental groups with 8 to 9 animals in each group and received single daily injections for 28 days as follows: 1. Control (vehicle solution); 2. JV-1-38 (10 μg/day s.c.); 3. Peptide 35 (10 μg/day s.c.); 4. Peptide 36 (10 μg/day s.c.); 5. Peptide 37 (10 μd/day s.c.); 6. Peptide 39 (10 μg/day s.c.); 7. Peptide 41 (10 μg/day s.c.). Tumor volumes were measured twice a week. The experiment was ended on day 28 by sacrificing the mice under Isofurane anesthesia. Resulting tumors were cleaned, weighed, and snapfrozen until further analyses. Trunk blood was collected from the abdominal aorta and serum was separated for RIA measurement of IGF-I. Statistical analyses of the measurement results were done by ANOVA followed by Fisher test; data are presented as the means±S.E.
(§2) All experimental details of Experiment 4 are the same as for Experiment 3, with the following difference. When tumors reached a volume of approximately 55 mm^3, the mice were divided into 5 experimental groups with 8 to 9 animals in each group and received single daily injections for 28 days as follows: 1. Control (vehicle solution); 2. Peptide 80 (5 μg/day s.c.); 3. Peptide 86 (5 μg/day s.c.); 4. Peptide 95 (5 μg/day s.c.); 5. Peptide 96 (5 μg/day s.c.). Further details of Experiment 4 are the same as for Experiment 3.

[2] = tested on: GH-RH receptor isoforms on membrane fractions of human PC-3 prostate tumors; type: binding; details: general statement
In short: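 Competitive displacement of [^125I]JV-1-42 from crude membranes of human PC-3 prostate tumours grown as nude-mouse xenografts, with unlabelled peptides at 10^−12 to 10^−6 M. Bound radioactivity in the centrifuged pellet gamma-counted; Ki from Munson–Rodbard analysis. Relative affinity = Ki of reference peptide (JV-1-36 or JV-1-38) / Ki of test antagonist.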

[3] = tested on: IGF-I; test: PC-3 xenografts, Experiment 4: serum IGF-I (RIA); type: in vivo, nude mice; details: 5 μg/day s.c., 28 days; for Serum IGF-I (% inhibition): vs control
Text: For the measurement of GH and IGF-I levels in the serum, as well as IGF-I and IGF-II concentrations in the cytosol fraction of tumors, blood samples and tumor samples were collected and processed as described (Braczkowski R, Schally A V, Plonowski A, Varga J L, Groot K, Krupa M, Armatis P, Cancer 95: 1735-1745, 2002), hereby incorporated by reference. Briefly, blood samples are centrifuged to separate the serum, tumors are homogenized and centrifuged to separate the cytosol fraction. Serum GH is then measured by the double-antibody RIA method. Before measurement by RIA, IGF-I and IGF-II are extracted from serum and cytosol fractions using an acid-ethanol cryoprecipitation method that eliminates most of the IGF binding proteins, which can interfere with the RIA. IGF-I concentration is measured by RIA using IGF-I as a standard and goat anti-IGF-I antibody (both from DSL Inc., Webster, Tex.). IGF-II concentration is measured by RIA using human recombinant IGF-II (Bachem) as a standard and anti-IGF-II monoclonal antibody (Amano International Enzyme, Troy, Va.).
as §1, §2

| Substance | antitumor effect on PC-3 tumors (in words) ([1]; 5 μg/day) | Tumor volume (mm^3) Final [1] | Tumor volume doubling time [1] [days] | Tumor weight [1] [mg] | Tumor volume Final (% inhibition) [1] [%] | Tumor weight (% inhibition) [1] [%] | Tumor volume (mm^3) Initial [1] [mm^3] | binding affinities to the tumoral receptors for GH-RH (in words) [2] | Serum IGF-I [3] [ng/mL] | Serum IGF-I (% inhibition) [3] [%] |
| --- | --- | --- | --- | --- | --- | --- | --- | --- | --- | --- |
| [CH3(CH2)6CO-Tyr^1, D-Arg^2, Phe(pCl)^6, Ala^8, His^9, Tyr(Et)^10, His^11, Orn^12, Abu^15, His^20, Orn^21, Nle^27, D-Arg^28, Har^29]hGH-RH(1-29)NH2 [Peptide 96] | strongest antitumor effect | 301 ± 65.2** mm^3 | 11.0 ± 0.87 | 489 ± 114 | 77 | 66 | 56.2 ± 13.3 | extremely high binding affinities | 114 ± 15.5 | 31 |
| [CH3(CH2)6CO-Tyr^1, D-Arg^2, Phe(pCl)^6, Ala^8, His^9, Tyr(Et)^10, His^11, Abu^15, His^20, Nle^27, D-Arg^28, Har^29]hGH-RH(1-29)NH2 [Peptide 86] | – | 397 ± 71.8* mm^3 | 12.1 ± 1.40 | 643 ± 94.9 | 68 | 56 | 56.1 ± 8.67 | extremely high binding affinities | 118 ± 8.94 | 28 |
| [CH3(CH2)6CO-Tyr^1, D-Arg^2, Phe(pCl)^6, Ala^8, His^9, Tyr(Et)^10, His^11, Orn^12, Abu^15, Orn^21, Nle^27, D-Arg^28, Har^29]hGH-RH(1-29)NH2 [Peptide 95] | – | 393 ± 79.8* mm^3 | 12.5 ± 1.80 | 666 ± 131 | 69 | 54 | 60.9 ± 12.2 | extremely high binding affinities | 127 ± 17.5 | 23 |
